Data as given in patent publication US7514446B2, “Pyrimidine compounds” (SmithKline Beecham Corporation, priority 2003, dated 2009).
Counter-ions that a name gives are not always drawn.

Key:
[1] = test system: MCF7 breast tumor cell line; assay: Methylene Blue Growth Inhibition Assay, MCF7; assay type: cell-based; conditions: Homo sapiens, 72 h; MCF7 cells, 3 days; read-out: MeB Cell Line IC50
Experimental: (§1) II. Methylene Blue Growth Inhibition Assay
(§2) Normal Human foreskin fibroblasts (HFF) and human colon (HCT116, RKO), lung (H460), prostate (PC3), and breast tumor (MCF7) cell lines were cultured in high glucose DMEM (Life Technologies) containing 10% fetal bovine serum (FBS) at 37° C. in a humidified 10% CO2, 90% air incubator. Cells were harvested using trypsin/EDTA, counted using a haemocytometer, and plated in 100 μl of the appropriate media, at the following densities, in a 96-well tissue culture plate (Falcon 3075): HFF 5,000 cells/well, HCT116 3,000 cells/well, RKO 2,500 cells/well, H460 2,000 cells/well, PC3 8,000 cells/well, MCF7 4,000 cells/well. The next day, compounds were diluted in DMEM containing 100 μg/ml gentamicin, at twice the final required concentration, from 10 mM stock solutions in DMSO. 100 μl/well of these dilutions were added to the 100 μl of media currently on the cell plates. Medium containing 0.6% DMSO was added to control wells. Compounds diluted in DMEM were added to all cell lines. The final concentration of DMSO in all wells was 0.3%. Cells were incubated at 37° C., 10% CO2 for 3 days. Medium was removed by aspiration. Cell biomass was estimated by staining cells with 90 μl per well methylene blue (Sigma M9140, 0.5% In 50:50 ethanol:water), and incubation at room temperature for at least 30 minutes. Stain was removed, and the plates rinsed under a gentle stream of water, and air-dried. To release stain from the cells 100 μl of solubilization solution was added (1% N-lauroyl sarcosine, Sodium salt, Sigma L5125, in PBS), and plates were shaken gently for about 30 minutes. Optical density at 620 nm was measured on a microplate reader. Percent inhibition of cell growth was calculated relative to vehicle treated control wells. Concentration of compound that inhibits 50% of cell growth (IC50) was interpolated using nonlinear regression (Levenberg-Marquardt) and the equation, y=Vmax*(1−(x/(K+x)))+Y2, where “K” was equal to the IC50. In Table 1, +=10->30 uM; ++=1-10 uM: +++=<1 uM.

[2] = test system: H460 lung tumor cell line; assay: Methylene Blue Growth Inhibition Assay, H460; assay type: cell-based; conditions: Homo sapiens, NCI-H460, 72 h; H460 cells, 3 days; read-out: MeB Cell Line IC50
Experimental: as §1, §2

[3] = test system: RKO colon tumor cell line; assay: Methylene Blue Growth Inhibition Assay, RKO; assay type: cell-based; conditions: Homo sapiens, 72 h; RKO cells, 3 days; read-out: MeB Cell Line IC50
Experimental: as §1, §2

PLK1 kinase domain = molecular target: T1, PLK1 kinase domain (Homo sapiens, UniProt P53350); assay: Assay for inhibition of PLK1 (SPA, 33P-ATP, His-tagged PLK kinase domain); assay type: biochemical; conditions: 2 μM ATP, read-out: Ave pIC50 PLK Enzyme Inhibition (converted)
T1 construct: made in house; host or cells: baculovirus-infected T. ni insect cells
Experimental: I. Assay for Inhibition of PLK1
A. Preparation of 6× N-terminal His-tagged PLK Kinase Domain
6× N-terminal His-tagged PLK kinase domain (amino acids 21-346 preceded by […]) was prepared from baculovirus infected T. ni cells under polyhedrin promoter control. All procedures were performed at 4° C. Cells were lysed in 25 mM HEPES, 200 mM NaCl, 25 mM imidazole; pH 8.0. The homogenate was centrifuged at 14K rpm in a SLA-1500 rotor for 40 min and the supernatant filtered through a 1.2 micron filter. The supernatant was loaded onto a Nickel chelating Sepharose (Amersham Pharmacia) column and washed with 25 mM HEPES, 500 mM NaCl, 25 mM imidazole; pH 8.0. The column was then washed with a 16.6% B step where buffer B is 25 mM HEPES, 500 mM NaCl, 300 mM imidazole; pH 8.0. Protein was eluted using a 10-column volume linear gradient from 16.6% B to 100% B. Fractions containing PLK were determined by SDS-PAGE. PLK was concentrated using a 10 kDa molecular weight cutoff membrane and then loaded onto a Superdex 75 gel filtration (Amersham Pharmacia) column equilibrated in 25 mM HEPES, 1 mM DTT, 500 mM NaCl; pH 8.0. Fractions containing PLK were determined by SDS-PAGE. PLK was pooled, aliquoted and stored at −80° C. Samples were quality controlled using mass spectrometry.
B. Enzyme Activity+/−Inhibitors was Determined as Follows:
Compounds were added to the plate (1 μl in 100% DMSO). DMSO (2% final) and EDTA (55.5 mM final) were used as controls. Reaction Mix A is prepared as follows at 4° C.:
Reaction Mix A (substrate Mix): • 25 mM HEPES, pH 7.2 • 15 mM MgCl2 • 2 μM ATP • 0.1 μCi/well ^33P-γ ATP (10 Ci/mMol) • 2 μM substrate peptide (Biotin-Ahx-[…]) Reaction Mix B is prepared as follows at 4° C.:
Reaction Mix B (Enzyme Mix) • 25 mM HEPES, pH 7.2 • 15 mM MgCl2 • 0.15 mg/ml BSA • 2 mM DTT • 2-10 nM PLK1 kinase domain
Reaction Mix A (20 μl) is added per well. Reaction Mix B (20 μl) is added per well. Incubate 1.5 hrs. at RT. The enzymatic reaction is stopped with 175 μl of SPA/EDTA bead mix (29 mM EDTA, 2.5 mg/ml Streptavidin-coated SPA in Standard Dulbecco's PBS (without Mg^2+ and Ca^2+), 60 μM ATP). Plates are sealed spun (after a 1 hr incubation at RT) at 1,000×g for 7 min or settled overnight, then plates counted in Packard TopCount for 30 seconds/well.

[4] = test system: PC3 prostate tumor cell line; assay: Methylene Blue Growth Inhibition Assay, PC3; assay type: cell-based; conditions: Homo sapiens, PC-3, 72 h; PC3 cells, 3 days; read-out: MeB Cell Line IC50
Experimental: as §1, §2

[5] = test system: HCT116 colon tumor cell line; assay: Methylene Blue Growth Inhibition Assay, HCT116; assay type: cell-based; conditions: Homo sapiens, HCT-116, 72 h; HCT116 cells, 3 days; read-out: MeB Cell Line IC50
Experimental: as §1, §2

[6] = test system: Normal Human foreskin fibroblasts (HFF); assay: Methylene Blue Growth Inhibition Assay, HFF; assay type: cell-based; conditions: 72 h, HFF cells, 3 days, read-out: MeB Cell Line IC50
Experimental: as §1, §2

T1 sequence (P53350 21-346): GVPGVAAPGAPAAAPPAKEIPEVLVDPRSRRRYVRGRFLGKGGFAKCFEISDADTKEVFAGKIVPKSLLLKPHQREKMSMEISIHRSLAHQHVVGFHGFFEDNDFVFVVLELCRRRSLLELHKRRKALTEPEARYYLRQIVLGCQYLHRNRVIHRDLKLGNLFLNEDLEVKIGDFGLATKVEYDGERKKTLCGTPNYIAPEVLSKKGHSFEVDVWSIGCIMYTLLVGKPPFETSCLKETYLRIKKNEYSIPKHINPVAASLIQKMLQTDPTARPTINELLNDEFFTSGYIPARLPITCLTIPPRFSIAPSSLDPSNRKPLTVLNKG

SMILES | IC50 [1] [µM] | IC50 [2] [µM] | IC50 [3] [µM] | IC50 (PLK1 kinase domain) [nM] | IC50 [4] [µM] | IC50 [5] [µM] | IC50 [6] [µM]
CC(=O)Nc1ccc(Nc2ncc([N+](=O)[O-])c(Nc3ccccc3C(=O)c3ccccc3)n2)cc1 [Example 7, N-[4-({4-[(2-benzoylphenyl)amino]-5-nitropyrimidin-2-yl}amino)phenyl]acetamide hydrochloride] | 1 to 10 | 1 to 10 | 1 to 10 | < 100 | 1 to 10 | 1 to 10 | > 10
COc1cc(Nc2ncc([N+](=O)[O-])c(Nc3cccc4c3C(=O)CCC4)n2)cc(OC)c1OC [Example 9, 8-({5-nitro-2-[(3,4,5-trimethoxyphenyl)amino]pyrimidin-4-yl}amino)-3,4-dihydronaphthalen-1(2H)-one hydrochloride] | 1 to 10 | 1 to 10 | 1 to 10 | < 100 | 1 to 10 | 1 to 10 | > 10
COc1cc(Nc2ncc([N+](=O)[O-])c(Nc3cccc4[nH]ccc34)n2)cc(OC)c1OC [Example 15, N^4-(1H-indol-4-yl)-5-nitro-N^2-(3,4,5-trimethoxyphenyl)pyrimidine-2,4-diamine hydrochloride] | 1 to 10 | 1 to 10 | < 1 | < 100 | 1 to 10 | 1 to 10 | 1 to 10
COc1cc(Nc2ncc([N+](=O)[O-])c(Nc3cccc4c3OCCO4)n2)cc(OC)c1OC [Example 19, N^4-(2,3-dihydro-1,4-benzodioxin-5-yl)-5-nitro-N^2-(3,4,5-trimethoxyphenyl)pyrimidine-2,4-diamine hydrochloride] | 1 to 10 | 1 to 10 | 1 to 10 | < 100 | > 10 | > 10 | > 10
COc1cc(Nc2ncc([N+](=O)[O-])c(Nc3ccc(O)cc3C(=O)O)n2)cc(OC)c1OC [Example 22, 5-Hydroxy-2-({5-nitro-2-[(3,4,5-trimethoxyphenyl)amino]pyrimidin-4-yl}amino)benzoic acid hydrochloride] | > 10 | > 10 | > 10 | < 100 | > 10 | > 10 | > 10
COc1cc(Nc2ncc([N+](=O)[O-])c(Nc3ccccc3C(=O)NC3CCCCC3)n2)cc(OC)c1OC [Example 34, N-Cyclohexyl-2-({5-nitro-2-[(3,4,5-trimethoxyphenyl)amino]pyrimidin-4-yl}amino)benzamide hydrochloride] | 1 to 10 | 1 to 10 | 1 to 10 | < 100 | > 10 | 1 to 10 | 1 to 10
COc1cc(Nc2ncc([N+](=O)[O-])c(Nc3ccc(Cl)cc3C(=O)c3ccccc3F)n2)cc(OC)c1OC [Example 36, [5-Chloro-2-({5-nitro-2-[(3,4,5-trimethoxyphenyl)amino]pyrimidin-4-yl}amino)phenyl](2-fluorophenyl)methanone hydrochloride] | 1 to 10 | 1 to 10 | 1 to 10 | < 100 | > 10 | 1 to 10 | > 10
COc1cc(Nc2ncc(C#N)c(Nc3ccccc3C(=O)c3ccc(C)cc3)n2)cc(OC)c1OC [Example 39, 4-{[2-(4-Methylbenzoyl)phenyl]amino}-2-[(3,4,5-trimethoxyphenyl)amino]pyrimidine-5-carbonitrile] | 1 to 10 | 1 to 10 | 1 to 10 | < 100 | 1 to 10 | 1 to 10 | > 10
